This passage reports responders and ED50 results from patent US9315451B2, “Tetracycline compounds” (priority 2009, dated 2016).

In the assay the test system is S. aureus Smith (ATCC 13709). In words: Mouse systemic infection (septicemia) model, S. aureus Smith. In kind it is in vivo. The settings on record: Staphylococcus aureus; for responders at 3 mg/kg: ATCC13709, iv, read-out: SA Smith septicemia survival IV (3 mg/kg); for responders at 3 mg/kg / responders at 30 mg/kg: 48 h; for responders at 30 mg/kg: ATCC13709, po, read-out: SA Smith septicemia survival PO (30 mg/kg); for ED50: ATCC13709, dose that prevents 50% of the mice from death, 48 hours. Here is the method: Mouse Systemic Infection Protocol-S. aureus Smith Septicemia
Compounds were screened for antibacterial activity in vivo in a mouse systemic infection (septicemia) model. In the model, CD-1 female mice (18-22 grams) were injected IP with a S. aureus Smith (ATCC 13709) inoculum that results in 0% survival within 24 to 48 hours. The bacterial dose required to achieve this effect was previously established through virulence studies. At one hour post infection, mice received either […] IV or […] PO. Typically, six mice were treated per dose group. Animal survival was assessed and recorded for 48 hours. Percent survival at 48 hours was recorded and PD50 (mg/kg) was determined for each compound tested.

The mark [1] stands for this setting: CD-1 female mice, IV 3 mg/kg one hour post infection, survival at 48 hours.
Setting [2] is: CD-1 female mice, PO 30 mg/kg one hour post infection, survival at 48 hours.
[3] abbreviates: CD-1 female mice, PO, read-out: SA Smith septicemia PD50 PO.

Like-named read-outs stand apart in the source and are kept apart here.

With `CN(C)[C@@H]1C(O)=C(C(N)=O)C(=O)[C@@]2(O)C(O)=C3C(=O)c4c(O)cc(CNC56CC7CC(CC(C7)C5)C6)c(F)c4C[C@H]3C[C@@H]12` [Compound S1-14-4], the responders at 3 mg/kg under setting [1] turned out to be 100%. The responders at 30 mg/kg under setting [2] amounted to 0%.
Regarding `CN(C)[C@@H]1C(O)=C(C(N)=O)C(=O)[C@@]2(O)C(O)=C3C(=O)c4c(O)cc(CNCC56CC7CC(CC(C7)C5)C6)c(F)c4C[C@H]3C[C@@H]12` [Compound S1-14-25], the responders at 3 mg/kg under setting [1] turned out to be 33%. For the same compound, under setting [2], the responders at 30 mg/kg was 17%.
Consider `CN(C)[C@@H]1C(O)=C(C(N)=O)C(=O)[C@@]2(O)C(O)=C3C(=O)c4c(O)cc(CNC5C6CC7CC(C6)CC5C7)c(F)c4C[C@H]3C[C@@H]12` (some centres unmarked) [Compound S1-14-28], for which the responders at 3 mg/kg under setting [1] was determined as 33%. For the same compound, under setting [2], the responders at 30 mg/kg came to 17%.
Regarding `CN(C)[C@@H]1C(O)=C(C(N)=O)C(=O)[C@@]2(O)C(O)=C3C(=O)c4c(O)cc(CN(CCF)CC5CC5)c(F)c4C[C@H]3C[C@@H]12` [Compound S1-14-31], the responders at 3 mg/kg is 0% and the responders at 30 mg/kg was 0%.
On to `CCN(Cc1cc(O)c2c(c1F)C[C@H]1C[C@H]3[C@H](N(C)C)C(O)=C(C(N)=O)C(=O)[C@@]3(O)C(O)=C1C2=O)C1(C)CC1` [Compound S1-14-36], for which the responders at 3 mg/kg under setting [1] was found to be 33%. The responders at 30 mg/kg under setting [2] worked out at 0%.
The matching figures for `CN(Cc1ccccc1)Cc1cc(O)c2c(c1F)C[C@H]1C[C@H]3[C@H](N(C)C)C(O)=C(C(N)=O)C(=O)[C@@]3(O)C(O)=C1C2=O` [Compound S1-14-46]: 0% and 0%.
As for `CCN(Cc1cc(O)c2c(c1F)C[C@H]1C[C@H]3[C@H](N(C)C)C(O)=C(C(N)=O)C(=O)[C@@]3(O)C(O)=C1C2=O)C1(C)CCCC1` [Compound S1-14-73], the responders at 3 mg/kg under setting [1] was determined as 50%. For the same compound, the responders at 30 mg/kg under setting [2] stood at 75%.
The matching figures for `CN(C)[C@@H]1C(O)=C(C(N)=O)C(=O)[C@@]2(O)C(O)=C3C(=O)c4c(O)cc(CNC5Cc6ccccc6C5)c(F)c4C[C@H]3C[C@@H]12` [Compound S1-14-90]: 33% and 0%.
The matching figures for `CCC1(CNCc2cc(O)c3c(c2F)C[C@H]2C[C@H]4[C@H](N(C)C)C(O)=C(C(N)=O)C(=O)[C@@]4(O)C(O)=C2C3=O)CCC1` [Compound S1-14-91]: 17% and 60%.
The matching figures for `CN(C)[C@@H]1C(O)=C(C(N)=O)C(=O)[C@@]2(O)C(O)=C3C(=O)c4c(O)cc(CNCc5ccccc5)c(F)c4C[C@H]3C[C@@H]12` [Compound S1-14-105]: 67% and 0%.
With `CN(C)[C@@H]1C(O)=C(C(N)=O)C(=O)[C@@]2(O)C(O)=C3C(=O)c4c(O)cc(CN5CCC6(CC5)CC6)c(F)c4C[C@H]3C[C@@H]12` [Compound S1-14-128], the responders at 3 mg/kg under setting [1] came out at 100%. Moreover, under setting [2], the responders at 30 mg/kg is 100%.
As for `CN(C)[C@@H]1C(O)=C(C(N)=O)C(=O)[C@@]2(O)C(O)=C3C(=O)c4c(O)cc(CN5CCC(C6CC6)CC5)c(F)c4C[C@H]3C[C@@H]12` [Compound S1-14-134], the responders at 3 mg/kg under setting [1] was found to be 50%. Moreover, the responders at 30 mg/kg under setting [2] was 17%.
Consider `CN(C)[C@@H]1C(O)=C(C(N)=O)C(=O)[C@@]2(O)C(O)=C3C(=O)c4c(O)cc(CNC(C)(C)CC(C)(C)C)c(F)c4C[C@H]3C[C@@H]12` [Compound S2-4-7], for which the responders at 3 mg/kg under setting [1] came to 67%. Also, under setting [2], the responders at 30 mg/kg came to 17%.
The matching figures for `CN(C)[C@@H]1C(O)=C(C(N)=O)C(=O)[C@@]2(O)C(O)=C3C(=O)c4c(O)cc(CN5CCCCC56CC6)c(F)c4C[C@H]3C[C@@H]12` [Compound S2-4-11]: 0% and 0%.
The corresponding values for `CN(Cc1cc(O)c2c(c1F)C[C@H]1C[C@H]3[C@H](N(C)C)C(O)=C(C(N)=O)C(=O)[C@@]3(O)C(O)=C1C2=O)CC(C)(C)C` [Compound S2-4-21] are 16% and 0%.
`CN(C)[C@@H]1C(O)=C(C(N)=O)C(=O)[C@@]2(O)C(O)=C3C(=O)c4c(O)cc(CN(C)C(C)(C)CC(C)(C)C)c(F)c4C[C@H]3C[C@@H]12` [Compound S2-4-30]: under setting [1], the responders at 3 mg/kg worked out at 33%. For the same compound, the ED50 under setting [3] is greater than 60 mg/kg.
On to `CCN(Cc1cc(O)c2c(c1F)C[C@H]1C[C@H]3[C@H](N(C)C)C(O)=C(C(N)=O)C(=O)[C@@]3(O)C(O)=C1C2=O)C(C)(C)CC` [Compound S2-4-33], for which the responders at 3 mg/kg under setting [1] was 67%. In addition, the responders at 30 mg/kg under setting [2] came out at 33%.
The corresponding values for `CN(C)[C@@H]1C(O)=C(C(N)=O)C(=O)[C@@]2(O)C(O)=C3C(=O)c4c(O)cc(CN(CC5CC5)C5CC5)c(F)c4C[C@H]3C[C@@H]12` [Compound S2-4-41] are 0% and 0%.
Regarding `CCN(Cc1cc(O)c2c(c1F)C[C@H]1C[C@H]3[C@H](N(C)C)C(O)=C(C(N)=O)C(=O)[C@@]3(O)C(O)=C1C2=O)CC(C)C` [Compound S2-4-50], the ED50 came to 1 mg/kg (CD-1 female mice, IV, read-out: SA Smith septicemia PD50 IV) and 10.1 mg/kg under setting [3].
With `CC(C)[C@@H](C)N(C)Cc1cc(O)c2c(c1F)C[C@H]1C[C@H]3[C@H](N(C)C)C(O)=C(C(N)=O)C(=O)[C@@]3(O)C(O)=C1C2=O` [Compound S2-4-57], the responders at 3 mg/kg under setting [1] turned out to be 50%. The responders at 30 mg/kg under setting [2] was found to be 33%.
The matching figures for `CN(C)[C@@H]1C(O)=C(C(N)=O)C(=O)[C@@]2(O)C(O)=C3C(=O)c4c(O)cc(CN(C)C5(C6CC6)CC5)c(F)c4C[C@H]3C[C@@H]12` [Compound S2-4-60]: 17% and 33%.
The matching figures for `CCN(Cc1cc(O)c2c(c1F)C[C@H]1C[C@H]3[C@H](N(C)C)C(O)=C(C(N)=O)C(=O)[C@@]3(O)C(O)=C1C2=O)CC1CCCC1` [Compound S2-4-62]: 17% and 25%.
As to `C[C@@H]1CCC[C@H](C)N1Cc1cc(O)c2c(c1F)C[C@H]1C[C@H]3[C@H](N(C)C)C(O)=C(C(N)=O)C(=O)[C@@]3(O)C(O)=C1C2=O` [Compound S2-4-66], the responders at 3 mg/kg under setting [1] amounted to 100%. For the same compound, under setting [2], the responders at 30 mg/kg came to 100%. The ED50 under setting [3] came to 8.5 mg/kg.
For `CN(C)[C@@H]1C(O)=C(C(N)=O)C(=O)[C@@]2(O)C(O)=C3C(=O)c4c(O)cc(CN5CCCCC5(C)C)c(F)c4C[C@H]3C[C@@H]12` [Compound S6-4-1], the responders at 3 mg/kg under setting [1] worked out at 100%. Also, the responders at 30 mg/kg under setting [2] stood at 100%.
Turning to `CN(C)[C@@H]1C(O)=C(C(N)=O)C(=O)[C@@]2(O)C(O)=C3C(=O)c4c(O)cc(CNCC(C)(C)C)c(Cl)c4C[C@H]3C[C@@H]12` [Compound S15-13-5], the responders at 3 mg/kg under setting [1] is 50%. In addition, under setting [2], the responders at 30 mg/kg is 17%.
Consider `CC(C)[C@@H](C)NCc1cc(O)c2c(c1Cl)C[C@H]1C[C@H]3[C@H](N(C)C)C(O)=C(C(N)=O)C(=O)[C@@]3(O)C(O)=C1C2=O` [Compound S15-13-8], for which, under setting [1], the responders at 3 mg/kg is 67%. Also, under setting [2], the responders at 30 mg/kg was determined as 50%.
With `CN(C)[C@@H]1C(O)=C(C(N)=O)C(=O)[C@@]2(O)C(O)=C3C(=O)c4c(O)cc(CN5CCC(C)(C)CC5)c(Cl)c4C[C@H]3C[C@@H]12` [Compound S15-13-16], the responders at 3 mg/kg under setting [1] is 33%. Also, the responders at 30 mg/kg under setting [2] was found to be 17%.
The corresponding values for `CN(C)[C@@H]1C(O)=C(C(N)=O)C(=O)[C@@]2(O)C(O)=C3C(=O)c4c(O)cc(CN5CCOCC5)c(Cl)c4C[C@H]3C[C@@H]12` [Compound S15-13-17] are 100% and 67%.
The corresponding values for `CN(C)[C@@H]1C(O)=C(C(N)=O)C(=O)[C@@]2(O)C(O)=C3C(=O)c4c(O)cc(CN[C@@H]5CC6CCC5C6)c(Cl)c4C[C@H]3C[C@@H]12` (some centres unmarked) [Compound S15-13-23] are 83% and 50%.
The matching figures for `CN(C)[C@@H]1C(O)=C(C(N)=O)C(=O)[C@@]2(O)C(O)=C3C(=O)c4c(O)cc(CN5CC6CCCCC6C5)c(Cl)c4C[C@H]3C[C@@H]12` (some centres unmarked) [Compound S15-13-117]: 33% and 20%.
As for `CC1CCN(Cc2cc(O)c3c(c2Cl)C[C@H]2C[C@H]4[C@H](N(C)C)C(O)=C(C(N)=O)C(=O)[C@@]4(O)C(O)=C2C3=O)CC1` [Compound S15-13-182], the responders at 3 mg/kg under setting [1] worked out at 33%. For the same compound, under setting [2], the responders at 30 mg/kg stood at 67%.
Regarding `CN(C)[C@@H]1C(O)=C(C(N)=O)C(=O)[C@@]2(O)C(O)=C3C(=O)c4c(O)cc(CN5CC6CCCC6C5)c(Cl)c4C[C@H]3C[C@@H]12` (some centres unmarked) [Compound S15-13-184], under setting [1], the responders at 3 mg/kg was 17%. Further, under setting [2], the responders at 30 mg/kg was found to be 0%.
